Experimental data: patent US9981956B2, “Small molecule inhibitors of fibrosis” (THE CALIFORNIA INSTITUTE FOR BIOMEDICAL RESEARCH, priority 2013, dated 2018)
Values after ≈ are worked out from the molar mass of the structure shown. Values joined by “and” are separate entries in the source; they are usually repeats but may differ in a detail not shown here. Identical values can stand only once. Like-named read-outs stand apart in the source and are kept apart here.

How the values were obtained:
[1] = molecular target: Cyp3A4 (Homo sapiens, UniProt P08684); experiment: Cyp reversible inhibition assay (human liver microsomes)
Procedure: The purpose of this assay was to determine reversible inhibition of Cyp enzyme with a given compound using a substrate probe turnover as the surrogate for inhibition. This was done with human liver microsomes rather an isolated enzyme to account for metabolites of parent drug leading to a potential drug-drug interaction through Cyp inhibition. The substrate turnover (for example conversion of midazolam to hydroxyl midazolam) was monitored by LCMSMS (Q1/Q2=342.2/203.2). Test compounds were tested in a 7-point dose response curve starting from 50 μM to 50 nM (˜3-fold dilution series).
The detailed protocol was as follows: • Prepared test compounds and standard inhibitors working solution (100×) • Pulled microsomes out of the −80° C. freezer to thaw on ice, labeled with the date and put back to freezer immediately after using. • Added 20 μL of the substrate solutions to corresponding wells. • Added 20 μL PB to Blank wells. • Added 2 μL of the test compounds and positive control working solution to corresponding wells. • Added 2 μL MeOH to No Inhibitor wells and Blank wells. • Prepared HLM working solution. • Added 158 μL of the HLM working solution to all wells of incubation plate. • Pre-warmed the plate for about 10 min at 37° C. water bath. • Prepared NADPH cofactor solution. • Added 20 μL NADPH cofactor to all incubation wells. • Mixed and incubated for 10 minutes at 37° C. water bath. • At the time point, terminated the reaction by adding 400 μL cold stop solution (200 ng/mL Tolbutamide in ACN). • Centrifuged the samples at 4000 rpm for 20 minutes to precipitate protein. • Transferred 200 μL supernatant to 200 μL HPLC water and shook for 10 min. • Analyzed samples by LC/MS/MS.

[2] = tested on: fibroblast to myofibroblast transdifferentiation (primary human lung fibroblasts and primary rodent HSCs); experiment: High content imaging and western based assay of fibroblast to myofibroblast transdifferentiation (α-SMA); type: cell-based; conditions: graded, TGF-β induced fibroblast to myofibroblast transdifferentiation
Description: A high content imaging assay, based on α-SMA staining and cell morphological changes associated with fibroblast to myofibroblast transdifferentiation, was established using primary human lung fibroblasts and primary rodent HSCs. Conditions, involving serum starvation and subsequent TGF-β treatment, were identified that facilitate robust in vitro transdifferentiation in a miniaturized (384 well plate) format that is amenable to high throughput small molecule screening. A selective ALK-5 TGF-β1 receptor inhibitor (SB-431542) was used as a positive control. […] This assay was used to identify a hit compound (itraconazole) and was used to evaluate focused panels of itraconazole analogues generated from medicinal chemistry efforts.
The activity of Itraconazole and its analogues was confirmed by analyzing changes in gene expression of multiple genes associated with fibroblast to myofibroblast transdifferentiation using biochemical methods (i.e., Western blot and RT-PCR). These 4-day assays were used to evaluate sets of 6 compounds at a time in 4-point dose response fashion.
After 24 hour incubation, cells were treated with the indicated doses of itraconazole for 48 hours in the presence of 10 ng/mL of TGF-β1 in hepatic stellate medium. Following fixation and staining with an anti smooth muscle actin antibody, cell morphology was analyzed with a Cellomics cell insight imaging reader (FIG. 1 for representative images). Cells were analyzed for mean cellular area of a-SMA staining (FIG. 5a) or mean fluorescence intensity of SMA staining (FIG. 5b).
After 24 incubation, medium was changed to assay medium containing TGF-β1 (10 ng/mL) and simultaneously treated with itraconazole (10 μM), SB431542 (10 μM) or vehicle control (FIG. 6).

[3] = tested on: Candida albicans (ATCC 10231); experiment: Candida albicans anti-fungal MIC potency determination; type: cell-based
Procedure: The wild type Candida albicans (ATCC 10231) was used and Fluconazole, amphotericin B, itraconazole and terbinafine were purchased from Sigma and used as positive controls.
The highest assay concentration for all test compounds and fluconazole was 100 μM. Fluconazole was also tested at the highest concentration of 64 μg/ml, and amphotercin B and terbinafine at 16 and 64 μg/ml. The test compounds were in DMSO stock solution at a concentration of 10 mM. Two stock solutions in DMSO were prepared for fluconazole at 10 mM and 6.4 mg/ml. Amphotericin B and terbinafine stock solutions in DMSO were prepared at 1.6 and 6.4 mg/ml.
Serial dilution of 100× stock solutions: 4 μl of stock solution was added into 196 μl of RPMI1640 (MOPS buffered and free of HEPES and sodium bicarbonate) in the first well of a row of a sterile u-bottom 96-well plate. The rest of the wells was filled with 100 μl RPMI1640. The 2-fold serial dilution was made sequentially by transferring 100 μl solution to the next well and mixing by pipetting, until 11th well. The extra 100 μl in 11th well was discarded. Therefore, the compound wells contained 100 μl of 2× of testing concentrations of drugs in RPMI1640. The 12th well was filled with only 100 μl RPMI1640.
C. albicans 3147 (ATCC 10231) glycerol frozen stock was streaked on Sabouraud dextrose agar (SDA). The plate was incubated at 35° C. ambient atmosphere for 20 h. Single colonies were suspended into sterile saline until turbidity reached 0.1 (1-5×10^6 CFU/ml) using a Siemens turbidity meter. This suspension was diluted 50× in RPMI1640 in a 15 ml conical, and then it was further diluted 20× in RPMI1640 in a 50 ml conical. This gave 1-5×10^3 CFU/ml suspension and was used as inoculum. The cell density in inoculum was plate-counted to be 4.94×10^3 CFU/ml.
The plates were incubated at 35° C. in ambient atmosphere. The photos were taken at 24 h and 48 h. The MIC end points for fluconazole and amphotericin B were read according to the M27-A3 protocol (Reference Method for Broth Dilution Antifungal Susceptibility Testing of Yeasts; Approved Standard-Third Edition, M27-A3 standard published Jan. 1, 2008 by Clinical and Laboratory Standards Institute). The MIC for compounds for test cmpds and terbinafine (not mentioned in M27-A3 protcol) were read as if they were azoles.

[4] = Cyp 3A4 testosterone LCMS IC50, human liver microsomes, substrate testosterone
[5] = Cyp 3A4 midazolam LCMS IC50, human liver microsomes, substrate midazolam
[6] = ATCC10231, 24 h, read-out: C. Albicans MIC90 at 24 h
[7] = ATCC10231, 48 h, read-out: C. Albicans MIC90 at 48 h

Cyp3A4, sequence (P08684 whole entry): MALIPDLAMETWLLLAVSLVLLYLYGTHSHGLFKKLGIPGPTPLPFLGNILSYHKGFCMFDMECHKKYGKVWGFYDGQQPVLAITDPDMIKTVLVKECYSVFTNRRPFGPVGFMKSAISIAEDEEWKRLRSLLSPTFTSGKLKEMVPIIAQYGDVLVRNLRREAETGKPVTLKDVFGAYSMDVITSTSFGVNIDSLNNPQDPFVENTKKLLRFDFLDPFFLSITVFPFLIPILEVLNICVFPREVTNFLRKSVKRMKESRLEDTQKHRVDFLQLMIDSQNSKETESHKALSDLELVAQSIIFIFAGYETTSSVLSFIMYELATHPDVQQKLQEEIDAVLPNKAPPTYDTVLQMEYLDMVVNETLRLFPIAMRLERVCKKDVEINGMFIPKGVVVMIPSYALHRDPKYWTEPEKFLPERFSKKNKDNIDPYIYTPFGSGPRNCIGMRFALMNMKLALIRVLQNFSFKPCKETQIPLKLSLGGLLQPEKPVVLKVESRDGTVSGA

Row | SMILES | IC50 [1, 4] [nM] | EC50 [2] [µM] | IC50 [1, 5] | MIC90 [3, 6] [µM] | MIC90 [3, 7] [µM]
1 | CCC(C)n1cnn(-c2ccc(N3CCN(c4ccc(OC[C@@H]5CO[C@@](Cn6cncn6)(c6ccc(F)cc6F)O5)cc4)CC3)cc2)c1=O (mixture of isomers) [Compound 1] | 4500 | 0.5 to 5 |  |  | 
2 | CCC(C)n1cnn(-c2ccc(N3CCN(c4ccc(OC[C@@H]5CO[C@@](Cn6ccnn6)(c6ccc(F)cc6F)O5)cc4)CC3)cc2)c1=O (stereo partly shown) [Compound 2] | > 30000 | 0.5 to 5 |  |  | 
3 | CCC(C)n1ncn(-c2ccc(N3CCN(c4ccc(OC[C@@H]5CO[C@@](Cn6ccnc6)(c6ccc(Cl)cc6Cl)O5)cc4)CC3)cc2)c1=O (stereo partly shown) [Compound 19] | 6.9 | 0.5 to 5 | 3.1 nM | 0.195 (≈ 0.137 µg/mL) | 0.195 (≈ 0.137 µg/mL)
4 | CCC(C)n1ncn(-c2ccc(N3CCN(c4ccc(OC[C@@H]5CO[C@@](Cc6cncnc6)(c6ccc(Cl)cc6Cl)O5)cc4)CC3)cc2)c1=O (stereo partly shown) [Compound 21] | 120 | 0.5 to 5 | 144 nM | > 100 | > 100
5 | CCC(C)n1ncn(-c2ccc(N3CCN(c4ccc(OC[C@@H]5CO[C@@](Cc6ccncc6)(c6ccc(Cl)cc6Cl)O5)cc4)CC3)cc2)c1=O (stereo partly shown) [Compound 23] |  | < 0.5 | 321 nM | > 100 | > 100
6 | CCC(C)n1ncn(-c2ccc(N3CCN(c4ccc(OC[C@@H]5CO[C@@](Cn6nccn6)(c6ccc(Cl)cc6Cl)O5)cc4)CC3)nc2)c1=O (stereo partly shown) [Compound 24] | > 30000 | 0.5 to 5 |  |  | 
7 | CCC(C)n1ncn(-c2ccc(N3CCN(c4ccc(OC[C@@H]5CO[C@@](Cc6cccnc6)(c6ccc(Cl)cc6Cl)O5)cc4)CC3)cc2)c1=O (stereo partly shown) [Compound 26] | 283 | 0.5 to 5 | 180 nM | > 100 | > 100
8 | CCC(C)n1ncn(-c2ccc(N3CCN(c4ccc(OC[C@@H]5CO[C@@](Cn6cccn6)(c6ccc(Cl)cc6Cl)O5)cc4)CC3)cc2)c1=O (stereo partly shown) [Compound 27] | > 50000 | 5 to 30 | > 50000 nM | > 100 | > 100
9 | CCC(C)n1ncn(-c2ccc(N3CCN(c4ccc(OC[C@@H]5CO[C@@](Cn6nccn6)(c6ccc(Cl)cc6)O5)cc4)CC3)cc2)c1=O (stereo partly shown) [Compound 30] | > 50000 | 0.5 to 5 | > 50000 nM | > 100 | > 100
10 | CCC(C)n1ncn(-c2ccc(N3CCN(c4ccc(OC[C@@H]5CO[C@@](Cn6nccn6)(c6ccccc6Cl)O5)cc4)CC3)cc2)c1=O (stereo partly shown) [Compound 32] | > 50000 | 5 to 30 | > 50000 nM | > 100 | > 100
11 | CCC(C)n1ncn(-c2ccc(N3CCN(c4ccc(OC[C@@H]5CO[C@@](Cn6nccn6)(c6ccc(Cl)c(Cl)c6)O5)cc4)CC3)cc2)c1=O (stereo partly shown) [Compound 36] | > 50000 | 5 to 30 | > 50000 nM | > 100 | > 100
12 | CCC(C)n1ncn(-c2ccc(N3CCN(c4ccc(OC[C@@H]5CO[C@@](Cn6nccn6)(c6ccccc6C)O5)cc4)CC3)cc2)c1=O (stereo partly shown) [Compound 41] | > 50000 | 0.5 to 5 | > 50000 nM | > 100 | > 100
13 | CCC(C)n1ncn(-c2ccc(N3CCN(c4ccc(OC[C@@H]5CO[C@@](Cn6nccn6)(c6ccc(Cl)cc6Cl)O5)c(F)c4)CC3)cc2)c1=O (stereo partly shown) [Compound 49] | > 50000 | 0.5 to 5 | > 50000 nM | > 100 | > 100
14 | CCC(C)n1ncn(-c2ccc(N3CCN(c4ccc(OC[C@@H]5CO[C@@](Cn6nccn6)(c6ccc(Cl)cc6Cl)O5)cc4F)CC3)cc2)c1=O (stereo partly shown) [Compound 54] | > 50000 | < 0.5 | > 50000 nM | > 100 | > 100
15 | CCC(C)n1ncn(-c2ccc(N3CCN(c4ccc(OC[C@@H]5CO[C@@](Cn6nccn6)(c6ccccc6C#N)O5)cc4)CC3)cc2)c1=O (stereo partly shown) [Compound 74] | > 50000 | 0.5 to 5 | > 50000 nM |  | 
16 | CCC(C)n1ncn(-c2ccc(N3CCN(c4ccc(OC[C@@H]5CO[C@@](Cn6nccn6)(c6ccc(Cl)cc6Cl)O5)c(C#N)c4)CC3)cc2)c1=O (stereo partly shown) [Compound 79] | > 50000 | 0.5 to 5 | > 50000 nM | > 100 | > 100
17 | CCC(C)n1ncn(-c2ccc(N3CCN(c4ccc(OC[C@@H]5CO[C@@](Cc6ccnnc6)(c6ccccc6)O5)cc4)CC3)cc2)c1=O (stereo partly shown) [Compound 84] | 1770 | 0.5 to 5 | 2550 nM and 2350 nM | > 100 | > 100
18 | CCC(C)n1ncn(-c2ccc(N3CCN(c4ccc(OC[C@@H]5CO[C@@](Cn6nccn6)(C6CCC6)O5)cc4)CC3)cc2)c1=O (stereo partly shown) [Compound 88] |  | 0.5 to 5 |  |  | 
19 | CCC(C)n1ncn(-c2ccc(N3CCN(c4ccc(OC[C@@H]5CO[C@@](Cn6nccn6)(C(C)C)O5)cc4)CC3)cc2)c1=O (stereo partly shown) [Compound 90] |  | 5 to 30 |  |  | 
20 | CCC(C)n1ncn(-c2ccc(N3CCN(c4ccc(OC[C@@H]5CO[C@@](Cn6nccn6)(C6CCOCC6)O5)cc4)CC3)cc2)c1=O (stereo partly shown) [Compound 92] |  | 5 to 30 |  |  | 
21 | CCC(C)n1ncn(-c2ccc(N3CCN(c4ccc(OC[C@@H]5CO[C@@](Cn6nccn6)(C6CCNCC6)O5)cc4)CC3)cc2)c1=O (stereo partly shown) [Compound 93] |  | 5 to 30 |  |  | 
22 | CCC(C)n1ncn(-c2ccc(N3CCN(c4ccc(OC[C@@H]5CO[C@@](CCn6cncn6)(c6ccc(Cl)cc6Cl)O5)cc4)CC3)cc2)c1=O (stereo partly shown) [Compound 100] | 545 | < 0.5 | 372 nM | 0.781 (≈ 0.562 µg/mL) | 1.56 (≈ 1.12 µg/mL)
23 | CCC(C)n1ncn(-c2ccc(N3CCN(c4ccc(OC[C@@H]5CO[C@@](CCCn6cncn6)(c6ccc(Cl)cc6Cl)O5)cc4)CC3)cc2)c1=O (stereo partly shown) [Compound 101] |  | 5 to 30 |  | > 100 | > 100
